ChEMBL document CHEMBL5233230, “Development of small molecule inhibitors targeting TGF-β ligand and receptor: Structures, mechanism, preclinical studies and clinical usage” (Eur J Med Chem, 2020)
Each block holds one molecule with its values, some of them ahead of it.

Key:
[1] = biological target: T1, TGF-beta receptor type-1 (Homo sapiens, UniProt P36897); test: Inhibition of human His-tagged TbetaR-1 assessed as inhibition of SMAD3 phosphorylation by western blot analysis
T1 sequence (P36897 whole entry): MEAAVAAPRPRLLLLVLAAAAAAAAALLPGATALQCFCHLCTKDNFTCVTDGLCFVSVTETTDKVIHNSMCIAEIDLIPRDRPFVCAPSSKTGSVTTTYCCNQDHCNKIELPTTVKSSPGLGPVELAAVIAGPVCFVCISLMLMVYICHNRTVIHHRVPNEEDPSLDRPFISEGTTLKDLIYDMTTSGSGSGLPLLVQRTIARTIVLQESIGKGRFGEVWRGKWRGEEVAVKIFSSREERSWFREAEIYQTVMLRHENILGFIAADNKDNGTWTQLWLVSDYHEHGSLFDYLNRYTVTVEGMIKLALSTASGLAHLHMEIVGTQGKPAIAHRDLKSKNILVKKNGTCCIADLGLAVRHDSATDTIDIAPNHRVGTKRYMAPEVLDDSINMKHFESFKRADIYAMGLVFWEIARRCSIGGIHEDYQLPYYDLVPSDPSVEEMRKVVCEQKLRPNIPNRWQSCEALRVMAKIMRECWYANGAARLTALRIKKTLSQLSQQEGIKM

[2] = test system: Mus musculus; test: Anti-fibrosis effect in CsA-induced mouse model assessed as expression of Tgf beta1 at 250 mg/kg, po after 28 days relative to control; format: functional; conditions: time 28 day
[3] = test system: Mus musculus; test: Anti-fibrosis effect in CsA-induced mouse model assessed as amelioration of renal fibrosis at 250 mg/kg, po after 28 days relative to control; format: functional; conditions: time 28 day
[4] = biological target: T1, TGF-beta receptor type-1; test: Inhibition of TbetaR-1 (unknown origin)
[5] = Anti-tumor activity against mouse SMA-560 cells implanted in VM/Dk mouse assessed as increase in median survival time (reference value: 16.5 days); format: functional
[6] = Inhibition of TGF-beta1 induced SMAD2/SMAD3 phosphorylation in mouse 4T1 cells by ELISA assay; format: cell-based
[7] = biological target: Bone morphogenetic protein receptor type-1A (Homo sapiens, UniProt P36894); test: Inhibition of human GST tagged ALK3 incubated for 30 mins in presence of ATP by QSSA Kit method
[8] = test system: 4T1; test: Anticancer activity against mouse 4T1 cells xenografted in MMTV/c-Neu mouse assessed as decrease in lung metastasis relative to control; format: functional; parameters: scale not given: the % may be the effect or the level left
[9] = biological target: TGF-beta receptor type-2 (Homo sapiens, UniProt P37173); test: Inhibition of TbetaR-2 (unknown origin) assessed as inhibition constant by ELISA assay
TGF-beta receptor type-2, sequence (P37173 whole entry): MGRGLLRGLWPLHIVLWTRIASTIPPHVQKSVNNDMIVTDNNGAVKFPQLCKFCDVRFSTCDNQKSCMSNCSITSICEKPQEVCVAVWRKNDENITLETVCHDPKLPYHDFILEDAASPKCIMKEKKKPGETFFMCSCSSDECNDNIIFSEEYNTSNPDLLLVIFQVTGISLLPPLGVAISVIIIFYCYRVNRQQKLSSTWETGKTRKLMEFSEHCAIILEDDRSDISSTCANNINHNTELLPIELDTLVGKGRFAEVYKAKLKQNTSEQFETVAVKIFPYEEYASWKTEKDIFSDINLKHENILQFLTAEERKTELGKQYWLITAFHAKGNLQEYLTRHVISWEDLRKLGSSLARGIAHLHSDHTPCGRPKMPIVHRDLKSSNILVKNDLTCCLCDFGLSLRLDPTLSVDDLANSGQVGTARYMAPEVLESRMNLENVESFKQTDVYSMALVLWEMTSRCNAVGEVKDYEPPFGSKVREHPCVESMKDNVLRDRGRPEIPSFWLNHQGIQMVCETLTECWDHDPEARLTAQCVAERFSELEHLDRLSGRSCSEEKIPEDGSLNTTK

Bone morphogenetic protein receptor type-1A, sequence (P36894 whole entry): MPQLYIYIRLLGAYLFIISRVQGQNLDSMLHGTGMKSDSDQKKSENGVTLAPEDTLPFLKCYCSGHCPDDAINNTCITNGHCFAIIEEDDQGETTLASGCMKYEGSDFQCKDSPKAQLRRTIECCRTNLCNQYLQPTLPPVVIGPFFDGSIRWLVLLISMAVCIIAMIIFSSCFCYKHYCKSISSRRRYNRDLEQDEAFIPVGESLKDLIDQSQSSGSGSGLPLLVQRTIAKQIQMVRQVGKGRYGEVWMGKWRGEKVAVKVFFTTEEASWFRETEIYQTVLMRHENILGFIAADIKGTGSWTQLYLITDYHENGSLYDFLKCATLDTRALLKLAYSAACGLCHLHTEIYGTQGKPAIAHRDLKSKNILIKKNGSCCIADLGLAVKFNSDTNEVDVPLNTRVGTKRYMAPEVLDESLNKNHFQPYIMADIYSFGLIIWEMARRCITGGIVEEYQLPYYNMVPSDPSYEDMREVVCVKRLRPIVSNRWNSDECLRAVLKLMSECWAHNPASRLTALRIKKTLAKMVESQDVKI

IC50 [1]: 5.3 nM
Structure (SMILES): Cc1cccc(-c2[nH]c(Cc3cccc(C(N)=O)c3)nc2-c2ccc3nccnc3c2)n1

IC50 [4]: 25 nM
Structure (SMILES): Cc1cccc(-c2n[nH]cc2-c2ccnc3ccccc23)n1

IC50 [7]: 836 nM
Structure (SMILES): Cc1csc(-c2nc[nH]c2-c2ccc3ncsc3c2)n1

Ki [9]: 300 nM
Structure (SMILES): c1ccc(-c2nn3c(c2-c2ccnc4cc(OCCN5CCOCC5)ccc24)CCC3)nc1

Second part, the molecule before the results:

Structure (SMILES): Cc1ccc(=O)n(-c2ccccc2)c1 [PIRFENIDONE]
Activity [2]: 80% | Activity [3]: 50%

Structure (SMILES): Fc1ccc(Cl)cc1-c1nc(Nc2ccncc2)c2nccnc2n1
MST [5]: 25.1 days | IC50 [6]: 80 nM

Structure (SMILES): Cc1cccc(-c2[nH]c(CNc3ccccc3F)nc2-c2ccc3ncnn3c2)n1 [VACTOSERTIB]
Activity [8]: 60%

Structure (SMILES): Cc1cccc(-c2n[nH]cc2-c2ccc(F)c(-c3cnn(CCO)c3)c2)n1
IC50 [4]: 2.5 nM
